Earlier results as cited in patent EP0535567A1, “Liposomes containing volatile inhalation anaesthetics, their preparation and their use” (B. Braun Melsungen AG, priority 1991, dated 1993).

Details: fraction of the anaesthetic that is metabolised

verstoffwechselt: < 2%
SMILES: FC(F)OC(Cl)C(F)(F)F (stereo not shown) [Isofluran, 1-Chlor-2,2,2-trifluorethyl(difluormethyl)ether]
